Values quoted from earlier work in patent US11439651B2 (priority 2020, dated 2022).

What was measured:
SARS particles = settings: cultured human cells with SARS particles added
SARS = settings: pre-treatment with low concentrations; cultured cells or freshly obtained human nasal epithelial cells

CCCCCCCCCCCCC/C=C/[C@@H](O)[C@@H](N)CO [sphingosine]
cellular infection (SARS particles): prevented cellular infection
adhesion of and infection with the virus (SARS): prevented adhesion of and infection with the virus
